The values that follow come from patent publication US8901309B2, “Fused triazoles for the treatment or prophylaxis of mild cognitive impairment” (Takeda Pharmaceutical Company Limited, priority 2010, dated 2014).

This experiment concerns Aβ42 in hippocampi of C57BL/6J mice. In words: Hippocampal soluble Aβ42 ELISA in mice after oral administration. It counts as in vivo, mouse. As to conditions: 10 mg/kg orally, hippocampi isolated 3 hours after administration, soluble Aβ42 by ELISA; for inhibition in vivo at 10 mg/kg: Mus musculus, po, 3 h, read-out: Aβ42 production inhibitory activity (% inhibition); for Aβ42 production inhibitory activity (% inhibition): 10 mg/kg. Here is the method:
Measurement of Amyloid β Production Inhibition Rate Using Primary Nerve Cell
C57BL/6J mice (7-10 weeks old) were purchased from CLEA Japan Inc. Mice were housed in groups and kept on a 12h-light; 12h-dark schedule. All mice were given ad libitum access to food and water.
Each test compound was reconstituted in solubilization buffer ([DMSO (Wako)]: [10% Cremophor (Nakarai)+30% polyethylene glycol 400 (Wako)+60% 2 mol/L Citrate buffer (Wako)]=1:9) and orally administrated at 10 mg/kg.
Hippocampi was isolated from animals, 3 hours after test compounds were orally administrated. Hippocampi were homogenized in ice-cold Tris-extraction buffer (50 mmol/L Tris-HCl, pH 7.2, 200 mmol/L sodium chloride, 2% protease-free bovine serum albumin, and 0.01% sodium merthiolate) containing protease inhibitor cocktails (Roche, Switzerland). After centrifugation at 15,000 rpm for 15 minutes, the supernatants were subjected to two-site sandwich ELISA to measure amount of soluble Aβ. Aβ42 was quantitated by two-site sandwich ELISA using BNT77, which recognizes Aβ11-28, as a capture antibody and BC05-HRP as a detector antibody, respectively.
Background: ELISA stands for enzyme-linked immunosorbent assay.

`COc1nc(-c2nnc3n2CCC[C@]3(Oc2cc(F)c(F)c(F)c2)C(C)(C)O)ccc1-n1cnc(C)c1` [Example 152, 2-{(8R)-3-[6-methoxy-5-(4-methyl-1H-imidazol-1-yl)pyridin-2-yl]-8-(3,4,5-trifluorophenoxy)-5,6,7,8-tetrahydro[1,2,4]triazolo[4,3-a]pyridin-8-yl}propan-2-ol]: the inhibition in vivo at 10 mg/kg was found to be 57%.

Regarding `COc1cc(-c2nnc3n2CCCC3(Oc2ccc(F)c(F)c2)C(C)(C)O)ccc1-c1cnc(C)o1` (centres unmarked) [Example 124, 2-{8-(3,4-difluorophenoxy)-3-[3-methoxy-4-(2-methyl-1,3-oxazol-5-yl)phenyl]-5,6,7,8-tetrahydro[1,2,4]triazolo[4,3-a]pyridin-8-yl}propan-2-ol], the inhibition in vivo at 10 mg/kg is 41%.

Regarding `COc1cc(-c2nnn3c2CCCC3(Oc2cc(F)c(F)c(F)c2)C(C)(C)O)ccc1-c1cnc(C)o1` (centres unmarked) [Example 186, 2-{3-[3-methoxy-4-(2-methyl-1,3-oxazol-5-yl)phenyl]-7-(3,4,5-trifluorophenoxy)-4,5,6,7-tetrahydro[1,2,3]triazolo[1,5-a]pyridin-7-yl}propan-2-ol], the inhibition in vivo at 10 mg/kg was found to be 22%.

Turning to `COc1cc(-c2nnc3n2CCCC3(Oc2ccc(C(F)(F)F)cc2)C(C)(C)O)ccc1-c1cnc(C)o1` (centres unmarked) [Example 132, 2-{3-[3-methoxy-4-(2-methyl-1,3-oxazol-5-yl)phenyl]-8-[4-(trifluoromethyl)phenoxy]-5,6,7,8-tetrahydro[1,2,4]triazolo[4,3-a]pyridin-8-yl}propan-2-ol], the “Aβ42 production inhibitory activity (% inhibition)” value is recorded as 58 % inhibition.

Take `COc1cc(-c2nnc3n2CCCC3(COc2ccc(Cl)cc2)C(C)(C)O)ccc1-c1cnc(C)o1` (centres unmarked) [Example 127, 2-{8-[(4-chlorophenoxy)methyl]-3-[3-methoxy-4-(2-methyl-1,3-oxazol-5-yl)phenyl]-5,6,7,8-tetrahydro[1,2,4]triazolo[4,3-a]pyridin-8-yl}propan-2-ol]: the inhibition in vivo at 10 mg/kg came to 21%.

On to `COc1cc(-c2nnc3n2CCCC3(Oc2cccc(C(F)(F)F)c2)C(C)(C)O)ccc1-c1cnc(C)o1` (centres unmarked) [Example 130, 2-{3-[3-methoxy-4-(2-methyl-1,3-oxazol-5-yl)phenyl]-8-[3-(trifluoromethyl)phenoxy]-5,6,7,8-tetrahydro[1,2,4]triazolo[4,3-a]pyridin-8-yl}propan-2-ol], for which the “Aβ42 production inhibitory activity (% inhibition)” value was 59 % inhibition.

Take `CCC(O)(CC)C1(Oc2ccc(Cl)c(F)c2)CCCn2c(-c3ccc(-c4cnc(C)o4)c(OC)c3)nnc21` (centres unmarked) [Example 120, 3-{8-(4-chloro-3-fluorophenoxy)-3-[3-methoxy-4-(2-methyl-1,3-oxazol-5-yl)phenyl]-5,6,7,8-tetrahydro[1,2,4]triazolo[4,3-a]pyridin-8-yl}pentan-3-ol]: the inhibition in vivo at 10 mg/kg came out at 21%.

For `COc1nc(-c2nnc3n2CCCC3(Oc2ccc(F)c(C(F)(F)F)c2)C(C)(C)O)ccc1-n1cnc(C)c1` (centres unmarked) [Example 157, 2-{8-[4-fluoro-3-(trifluoromethyl)phenoxy]-3-[6-methoxy-5-(4-methyl-1H-imidazol-1-yl)pyridin-2-yl]-5,6,7,8-tetrahydro[1,2,4]triazolo[4,3-a]pyridin-8-yl}propan-2-ol], the inhibition in vivo at 10 mg/kg amounted to 61%.

As for `COc1cc(-c2nnc3n2CCCC3(Oc2ccc(Cl)c(C(F)(F)F)c2)C(C)(C)O)ccc1-n1cnc(C)n1` (centres unmarked) [Example 139, 2-{8-[4-chloro-3-(trifluoromethyl)phenoxy]-3-[3-methoxy-4-(3-methyl-1H-1,2,4-triazol-1-yl)phenyl]-5,6,7,8-tetrahydro[1,2,4]triazolo[4,3-a]pyridin-8-yl}propan-2-ol], the inhibition in vivo at 10 mg/kg came out at 22%.

On to `COc1cc(-c2nnc3n2CCCC3(CC2CC2)c2ccc(F)c(F)c2)ccc1-c1cnc(C)o1` (centres unmarked) [Example 21, optically active 8-(cyclopropylmethyl)-8-(3,4-difluorophenyl)-3-[3-methoxy-4-(2-methyl-1,3-oxazol-5-yl)phenyl]-5,6,7,8-tetrahydro[1,2,4]triazolo[4,3-a]pyridine], for which the inhibition in vivo at 10 mg/kg amounted to 39%.

With `COc1cc(-c2nnc3n2CCCC3(Oc2ccc(F)c(F)c2)C(C)(C)O)ccc1-c1cnc(C)o1` (centres unmarked) [Example 92, 2-{8-(3,4-difluorophenoxy)-3-[3-methoxy-4-(2-methyl-1,3-oxazol-5-yl)phenyl]-5,6,7,8-tetrahydro[1,2,4]triazolo[4,3-a]pyridin-8-yl}propan-2-ol], the “Aβ42 production inhibitory activity (% inhibition)” value was 32 % inhibition.

In the case of `COc1cc(-c2nnc3n2CCCC3(Oc2ccc(C(F)(F)F)cc2)C(C)(C)O)ccc1-c1cnc(C)o1` (centres unmarked) [Example 104, 2-{3-[3-methoxy-4-(2-methyl-1,3-oxazol-5-yl)phenyl]-8-[4-(trifluoromethyl)phenoxy]-5,6,7,8-tetrahydro[1,2,4]triazolo[4,3-a]pyridin-8-yl}propan-2-ol], the “Aβ42 production inhibitory activity (% inhibition)” value turned out to be 36 % inhibition.

In the case of `COc1nc(-c2nnc3n2CCCC3(Oc2ccc(F)c(C(F)(F)F)c2)C(C)(C)O)ccc1-n1cnc(C)c1` (centres unmarked) [Example 2, 2-{8-[4-fluoro-3-(trifluoromethyl)phenoxy]-3-[6-methoxy-5-(4-methyl-1H-imidazol-1-yl)pyridin-2-yl]-5,6,7,8-tetrahydro[1,2,4]triazolo[4,3-a]pyridin-8-yl}propan-2-ol], the “Aβ42 production inhibitory activity (% inhibition)” value came to 48 % inhibition.

Take `COc1cc(-c2nnc3n2CCC[C@]3(Oc2cc(F)c(F)c(F)c2)C(C)(C)O)ccc1-c1cnc(C)o1` [Example 122, 2-{(8R)-3-[3-methoxy-4-(2-methyl-1,3-oxazol-5-yl)phenyl]-8-(3,4,5-trifluorophenoxy)-5,6,7,8-tetrahydro[1,2,4]triazolo[4,3-a]pyridin-8-yl}propan-2-ol]: the inhibition in vivo at 10 mg/kg is 54%.

As to `COc1cc(-c2nnc3n2CCCC3(Oc2ccc(Cl)c(F)c2)C(C)(C)O)ccc1-c1cnc(C)o1` (centres unmarked) [Example 111, 2-{8-(4-chloro-3-fluorophenoxy)-3-[3-methoxy-4-(2-methyl-1,3-oxazol-5-yl)phenyl]-5,6,7,8-tetrahydro[1,2,4]triazolo[4,3-a]pyridin-8-yl}propan-2-ol], the inhibition in vivo at 10 mg/kg was found to be 46%.

`COc1cc(-c2nnc3n2CCCC3(Oc2cc(F)cc(F)c2)C(C)(C)O)ccc1-c1cnc(C)o1` (centres unmarked) [Example 141, 2-{8-(3,5-difluorophenoxy)-3-[3-methoxy-4-(2-methyl-1,3-oxazol-5-yl)phenyl]-5,6,7,8-tetrahydro[1,2,4]triazolo[4,3-a]pyridin-8-yl}propan-2-ol]: the inhibition in vivo at 10 mg/kg is 46%.

`COc1nc(-c2nnc3n2CCCC3(Oc2cc(F)c(F)c(F)c2)C(C)(C)O)ccc1-c1cnc(C)o1` (centres unmarked) [Example 172, 2-{3-[6-methoxy-5-(2-methyl-1,3-oxazol-5-yl)pyridin-2-yl]-8-(3,4,5-trifluorophenoxy)-5,6,7,8-tetrahydro[1,2,4]triazolo[4,3-a]pyridin-8-yl}propan-2-ol]: the inhibition in vivo at 10 mg/kg was determined as 35%.

For the compound `COc1cc(-c2nnc3n2CCCC3(Oc2cc(F)c(F)c(F)c2)C(C)(C)O)ccc1-c1cnc(C)o1` (centres unmarked) [Example 99, 2-{3-[3-methoxy-4-(2-methyl-1,3-oxazol-5-yl)phenyl]-8-(3,4,5-trifluorophenoxy)-5,6,7,8-tetrahydro[1,2,4]triazolo[4,3-a]pyridin-8-yl}propan-2-ol], the inhibition in vivo at 10 mg/kg was 34%.

In the case of `COc1nc(-c2nnc3n2CCCC3(Oc2ccc(Cl)c(F)c2)C(C)(C)O)ccc1-n1cnc(C)c1` (centres unmarked) [Example 1, 2-{8-(4-chloro-3-fluorophenoxy)-3-[6-methoxy-5-(4-methyl-1H-imidazol-1-yl)pyridin-2-yl]-5,6,7,8-tetrahydro[1,2,4]triazolo[4,3-a]pyridin-8-yl}propan-2-ol], the inhibition in vivo at 10 mg/kg turned out to be 40%.

Regarding `COc1cc(-c2nnc3n2CCCC3(Oc2cc(F)cc(F)c2)C(C)(C)O)ccc1-c1cnc(C)o1` (centres unmarked) [Example 155, 2-{8-(3,5-difluorophenoxy)-3-[3-methoxy-4-(2-methyl-1,3-oxazol-5-yl)phenyl]-5,6,7,8-tetrahydro[1,2,4]triazolo[4,3-a]pyridin-8-yl}propan-2-ol], the “Aβ42 production inhibitory activity (% inhibition)” value amounted to 56 % inhibition.

As to `COc1cc(-c2nnc3n2CCCC3(Oc2cc(F)c(F)c(F)c2)C(C)(C)O)ccc1-c1cnn(C)c1` (centres unmarked) [Example 144, 2-{3-[3-methoxy-4-(1-methyl-1H-pyrazol-4-yl)phenyl]-8-(3,4,5-trifluorophenoxy)-5,6,7,8-tetrahydro[1,2,4]triazolo[4,3-a]pyridin-8-yl}propan-2-ol], the inhibition in vivo at 10 mg/kg was determined as 31%.

For `COc1cc(-c2nnc3n2CCCC3(Oc2cccc(C(F)(F)F)c2)C(C)(C)O)ccc1-c1cnc(C)o1` (centres unmarked) [Example 103, 2-{3-[3-methoxy-4-(2-methyl-1,3-oxazol-5-yl)phenyl]-8-[3-(trifluoromethyl)phenoxy]-5,6,7,8-tetrahydro[1,2,4]triazolo[4,3-a]pyridin-8-yl}propan-2-ol], the inhibition in vivo at 10 mg/kg was 42%.

Turning to `COc1cc(-c2nnc3n2CCCC3(Oc2cc(F)c(F)c(F)c2)C(C)(C)O)c(F)cc1-c1cnc(C)o1` (centres unmarked) [Example 162, 2-{3-[2-fluoro-5-methoxy-4-(2-methyl-1,3-oxazol-5-yl)phenyl]-8-(3,4,5-trifluorophenoxy)-5,6,7,8-tetrahydro[1,2,4]triazolo[4,3-a]pyridin-8-yl}propan-2-ol], the inhibition in vivo at 10 mg/kg was determined as 26%.
